Source: patent US20230293526A1, “METHOD FOR TREATING CANCER WITH A REVERSE TRANSCRIPTASE INHIBITOR” (PrimeFour Therapeutics, Inc., priority 2020, published 2023)

Experiments:
human LINE-1 = test: Human LINE-1 (L1) retrotransposition dual-luciferase reporter assay in HeLa cells; format: cell-based; conditions: Homo sapiens, HeLa, 72 h, read-out: Human LINE-1 IC50 (Human L1 activity inhibition)
How it was run: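 HeLa cells transfected with dual-luciferase L1 plasmid pYX017 (100 ng/well), dosed immediately after with serially diluted compounds (0.2% DMSO final) in triplicate and incubated 72 h at 37 °C. Relative L1 activity = Firefly/Renilla ×10,000; IC50 from logistic non-linear regression.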

cancer cell lines = test: Cancer cell proliferation activity of representative nucleosides, CellTiterGlo 72 h (Example 7, Tables 8 and 9); format: cell-based
How it was run: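 Cancer cell lines seeded and incubated at 37° C overnight, then exposed to nucleosides (final DMSO 0.1%) for 72 h at 37° C with 5% or 10% CO2. Viability read by CellTiterGlo luminescence and normalized to 0.1% DMSO (100%) and 10 μM staurosporine (0%) controls.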

Compound `C#C[C@]1(CO)O[C@@H](n2cnc3c(N)nc(F)nc32)C[C@@H]1O` [Islatravir (EFdA), Islatravir, reference compound] has an IC50 (human LINE-1) of 0.0011 µM, an IC50 (cancer cell lines; 72 h, 5637, 72 h (Table 9)) of 2.57 µM and an IC50 (cancer cell lines; 72 h, CLS439, 72 h (Table 9)) of over 50 µM. It also gave an IC50 (cancer cell lines; 72 h, HS729, 72 h (Table 9)) of 4.24 µM, an IC50 (cancer cell lines; 72 h, J82, 72 h (Table 9)) of 5.43 µM and an IC50 (cancer cell lines; 72 h, JAR, 72 h (Table 9)) of 5.41 µM. For the same compound, the IC50 (cancer cell lines; 72 h, MT3, 72 h (Table 9)) was 2.64 µM, the IC50 (cancer cell lines; 72 h, PC3, 72 h (Table 9)) was 3.12 µM and the IC50 (cancer cell lines; 72 h, RD, 72 h (Table 9)) was 3.3 µM. It also gave an IC50 (cancer cell lines; 72 h, T24, 72 h (Table 9)) of 2.68 µM, an IC50 (cancer cell lines; Homo sapiens, 22Rv1, 72 h, 22RV1, 72 h (Table 9)) of over 50 µM and an IC50 (cancer cell lines; Homo sapiens, 786-0, 72 h, 786O, 72 h (Table 9)) of 3.31 µM. The IC50 (cancer cell lines; Homo sapiens, A204, 72 h, A204, 72 h (Table 9)) was 1.46 µM, the IC50 (cancer cell lines; Homo sapiens, A549, 72 h, A549, 72 h (Table 9)) was 2.98 µM and the IC50 (cancer cell lines; Homo sapiens, A673, 72 h, A673, 72 h (Table 9)) was 4.57 µM. The IC50 (cancer cell lines; Homo sapiens, A2780, 72 h, A2780, 72 h (Table 9)) was 4.93 µM, the IC50 (cancer cell lines; Homo sapiens, A-375, 72 h, A375, 72 h (Table 9)) was 2.69 µM and the IC50 (cancer cell lines; Homo sapiens, A-431, 72 h, A431, 72 h (Table 9)) was 2.87 µM. It also gave an IC50 (cancer cell lines; Homo sapiens, ACHN, 72 h, 72 h (Table 9)) of 2.48 µM, an IC50 (cancer cell lines; Homo sapiens, ASPC1, 72 h, ASPC1, 72 h (Table 9)) of 4.97 µM and an IC50 (cancer cell lines; Homo sapiens, BT-20, 72 h, BT20, 72 h (Table 9)) of 2.79 µM. The IC50 (cancer cell lines; Homo sapiens, BXPC-3, 72 h, BXPC3, 72 h (Table 9)) was 2.77 µM, the IC50 (cancer cell lines; Homo sapiens, C-33-A, 72 h, C33A, 72 h (Table 9)) was 2.65 µM and the IC50 (cancer cell lines; Homo sapiens, CAKI-1, 72 h, CAKI1, 72 h (Table 9)) was 0.69 µM. It also gave an IC50 (cancer cell lines; Homo sapiens, COLO 205, 72 h, COLO205, 72 h (Table 9)) of 4.98 µM, an IC50 (cancer cell lines; Homo sapiens, COLO-678, 72 h, COLO678, 72 h (Table 9)) of 3.11 µM and an IC50 (cancer cell lines; Homo sapiens, Ca-Ski, 72 h, CASKI, 72 h (Table 9)) of 5.31 µM. For the same compound, the IC50 (cancer cell lines; Homo sapiens, Caco-2, 72 h, CACO2, 72 h (Table 9)) was over 50 µM, the IC50 (cancer cell lines; Homo sapiens, Calu-6, 72 h, CALU6, 72 h (Table 9)) was 5.3 µM and the IC50 (cancer cell lines; Homo sapiens, DLD-1, 72 h, DLD1, 72 h (Table 9)) was over 50 µM. It also gave an IC50 (cancer cell lines; Homo sapiens, DU-145, 72 h, DU145, 72 h (Table 9)) of 2.53 µM, an IC50 (cancer cell lines; Homo sapiens, EFO-21, 72 h, EFO21, 72 h (Table 9)) of 4.62 µM and an IC50 (cancer cell lines; Homo sapiens, EJ-28, 72 h, EJ28, 72 h (Table 9)) of 5.71 µM. For the same compound, the IC50 (cancer cell lines; Homo sapiens, Granta-519, 72 h, GRANTA-519, 72 h (Table 9)) was 1.68 µM, the IC50 (cancer cell lines; Homo sapiens, HCT-15, 72 h, HCT15, 72 h (Table 9)) was 5.9 µM and the IC50 (cancer cell lines; Homo sapiens, HCT-116, 72 h, HCT116, 72 h (Table 9)) was 4.69 µM. It also gave an IC50 (cancer cell lines; Homo sapiens, HEK293, 72 h, HEK293, 72 h (Table 9)) of 4.16 µM, an IC50 (cancer cell lines; Homo sapiens, HL-60, 72 h, HL-60, 72 h (Table 9)) of 3.49 µM and an IC50 (cancer cell lines; Homo sapiens, HT-29, 72 h, HT29, 72 h (Table 9)) of 4.63 µM. It also gave an IC50 (cancer cell lines; Homo sapiens, HT-1080, 72 h, HT1080, 72 h (Table 9)) of 3.19 µM, an IC50 (cancer cell lines; Homo sapiens, HeLa, 72 h, 72 h (Table 9)) of 2.98 µM and an IC50 (cancer cell lines; Homo sapiens, HepG2, 72 h, HEPG2, 72 h (Table 9)) of 3.14 µM. It also gave an IC50 (cancer cell lines; Homo sapiens, Hs-578T, 72 h, HS578T, 72 h (Table 9)) of 2.94 µM, an IC50 (cancer cell lines; Homo sapiens, IGROV-1, 72 h, IGROV1, 72 h (Table 9)) of 3.03 µM and an IC50 (cancer cell lines; Homo sapiens, IMR-90, 72 h, IMR90, 72 h (Table 9)) of 2.46 µM. It also gave an IC50 (cancer cell lines; Homo sapiens, JEG-3, 72 h, JEG3, 72 h (Table 9)) of 3.95 µM, an IC50 (cancer cell lines; Homo sapiens, JIMT-1, 72 h, JIMT1, 72 h (Table 9)) of 1.58 µM and an IC50 (cancer cell lines; Homo sapiens, K562, 72 h, K-562, 72 h (Table 9)) of 4.46 µM. It also gave an IC50 (cancer cell lines; Homo sapiens, Kasumi 1, 72 h, KASUMI-1, 72 h (Table 9)) of 0.96 µM, an IC50 (cancer cell lines; Homo sapiens, L-363, 72 h, L-363, 72 h (Table 9)) of 3.21 µM and an IC50 (cancer cell lines; Homo sapiens, LoVo, 72 h, 72 h (Table 9)) of 2.79 µM. For the same compound, the IC50 (cancer cell lines; Homo sapiens, MCF7, 72 h, MCF7, 72 h (Table 9)) was over 50 µM, the IC50 (cancer cell lines; Homo sapiens, MDA-MB-231, 72 h, MDAMB231, 72 h (Table 9)) was 2.56 µM and the IC50 (cancer cell lines; Homo sapiens, MDA-MB-435, 72 h, MDAMB435, 72 h (Table 9)) was over 50 µM. It also gave an IC50 (cancer cell lines; Homo sapiens, MDA-MB-436, 72 h, MDAMB436, 72 h (Table 9)) of 3.59 µM, an IC50 (cancer cell lines; Homo sapiens, MDA-MB-468, 72 h, MDAMB468, 72 h (Table 9)) of 4 µM and an IC50 (cancer cell lines; Homo sapiens, MG-63, 72 h, MG63, 72 h (Table 9)) of over 50 µM. It also gave an IC50 (cancer cell lines; Homo sapiens, MHH-ES-1, 72 h, MHHES1, 72 h (Table 9)) of 3.51 µM, an IC50 (cancer cell lines; Homo sapiens, MIA PaCa-2, 72 h, MIAPACA2, 72 h (Table 9)) of over 50 µM and an IC50 (cancer cell lines; Homo sapiens, MINO, 72 h, 72 h (Table 9)) of 1.34 µM. It also gave an IC50 (cancer cell lines; Homo sapiens, MV4-11, 72 h, MV4-11, 72 h (Table 9)) of 2.39 µM, an IC50 (cancer cell lines; Homo sapiens, NCI-H23, 72 h, NCI-H23, 72 h (Table 9)) of 2.96 µM and an IC50 (cancer cell lines; Homo sapiens, NCI-H82, 72 h, NCIH82, 72 h (Table 9)) of 2.73 µM. It also gave an IC50 (cancer cell lines; Homo sapiens, NCI-H292, 72 h, NCIH292, 72 h (Table 9)) of 3.68 µM, an IC50 (cancer cell lines; Homo sapiens, NCI-H460, 72 h, NCIH460, 72 h (Table 9)) of 3.31 µM and an IC50 (cancer cell lines; Homo sapiens, OVCAR-3, 72 h, OVCAR3, 72 h (Table 9)) of 4.15 µM. For the same compound, the IC50 (cancer cell lines; Homo sapiens, OVCAR-4, 72 h, OVCAR4, 72 h (Table 9)) was 3.1 µM, the IC50 (cancer cell lines; Homo sapiens, PANC-1, 72 h, PANC1, 72 h (Table 9)) was over 50 µM and the IC50 (cancer cell lines; Homo sapiens, PLC-PRF-5, 72 h, PLCPRF5, 72 h (Table 9)) was over 50 µM. It also gave an IC50 (cancer cell lines; Homo sapiens, Panc1005, 72 h, PANC1005, 72 h (Table 9)) of 3.87 µM, an IC50 (cancer cell lines; Homo sapiens, Ramos, 72 h, 72 h (Table 9)) of 1.88 µM and an IC50 (cancer cell lines; Homo sapiens, SAOS-2, 72 h, SAOS2, 72 h (Table 9)) of 1.65 µM. It also gave an IC50 (cancer cell lines; Homo sapiens, SF-268, 72 h, SF268, 72 h (Table 9)) of over 50 µM, an IC50 (cancer cell lines; Homo sapiens, SF-295, 72 h, SF295, 72 h (Table 9)) of 2.91 µM and an IC50 (cancer cell lines; Homo sapiens, SK-BR-3, 72 h, SKBR3, 72 h (Table 9)) of 1.76 µM. It also gave an IC50 (cancer cell lines; Homo sapiens, SK-HEP1, 72 h, SKHEP1, 72 h (Table 9)) of 2.66 µM, an IC50 (cancer cell lines; Homo sapiens, SK-LMS-1, 72 h, SKLMS1, 72 h (Table 9)) of 3.35 µM and an IC50 (cancer cell lines; Homo sapiens, SK-MEL-5, 72 h, SKMEL5, 72 h (Table 9)) of 6.02 µM. The IC50 (cancer cell lines; Homo sapiens, SK-MEL-28, 72 h, SKMEL28, 72 h (Table 9)) was 3.84 µM, the IC50 (cancer cell lines; Homo sapiens, SK-N-AS, 72 h, SKNAS, 72 h (Table 9)) was 2.98 µM and the IC50 (cancer cell lines; Homo sapiens, SK-N-SH, 72 h, SKNSH, 72 h (Table 9)) was 3.37 µM. The IC50 (cancer cell lines; Homo sapiens, SK-OV-3, 72 h, SKOV3, 72 h (Table 9)) was 3.25 µM, the IC50 (cancer cell lines; Homo sapiens, SNB-75, 72 h, SNB75, 72 h (Table 9)) was 3.27 µM and the IC50 (cancer cell lines; Homo sapiens, SU-DHL10, 72 h, SU-DHL-10, 72 h (Table 9)) was 2.6 µM. It also gave an IC50 (cancer cell lines; Homo sapiens, SU-DHL-6, 72 h, SU-DHL-6, 72 h (Table 9)) of 1.68 µM, an IC50 (cancer cell lines; Homo sapiens, SW-620, 72 h, SW620, 72 h (Table 9)) of 3.81 µM and an IC50 (cancer cell lines; Homo sapiens, TE-671, 72 h, TE671, 72 h (Table 9)) of over 50 µM. For the same compound, the IC50 (cancer cell lines; Homo sapiens, THP-1, 72 h, THP-1, 72 h (Table 9)) was 2.93 µM, the IC50 (cancer cell lines; Homo sapiens, U2OS, 72 h, 72 h (Table 9)) was 2.53 µM and the IC50 (cancer cell lines; Homo sapiens, U-87 MG, 72 h, U87MG, 72 h (Table 9)) was 2.75 µM. For the same compound, the IC50 (cancer cell lines; Homo sapiens, UMUC3, 72 h, UMUC3, 72 h (Table 9)) was 3.53 µM, the IC50 (cancer cell lines; Homo sapiens, UO-31, 72 h, UO31, 72 h (Table 9)) was 4.71 µM and the IC50 (cancer cell lines; Homo sapiens, WSU-NHL, 72 h, 72 h (Table 9)) was 3.17 µM. It also gave an IC50 (cancer cell lines; NCI-H358M, 72 h, NCIH358M, 72 h (Table 9)) of 0.73 µM, an IC50 (cancer cell lines; PBMC, 72 h, 72 h (Table 9)) of over 50 µM and an IC50 (cancer cell lines; RD-ES, 72 h, RDES, 72 h (Table 9)) of 3.01 µM.
